Assay results published in the SangsterLogP compilation.

Assay: from Ebert, E.; Eckhardt, W.; Jakel, K.; Moser, P.; Sozzi, D.; Vogel, C. (1989). Quantitative structure-activity relationships of fungicidally active triazoles: analogs and stereoisomers of propiconazole …
Details: pH 7.0

Point of comparison: `COCCOCC1COC(Cn2cncn2)(c2ccc(Cl)cc2Cl)O1` (stereo not given), logD 2.03. Against it:
- CCC1COC(Cn2cncn2)(c2ccc(-c3ccccc3)cc2)O1 (stereo not given) — higher, 3.71
- CC1COC(Cn2cncn2)(c2ccc(-n3cncn3)cc2Cl)O1 (stereo not given) — lower, 1.28
- CCC1COC(Cn2cncn2)(c2ccc(NC(=O)C(F)(F)F)cc2)O1 (stereo not given) — lower, 1.08
- CCC1COC(Cn2cncn2)(c2ccc(NC(=O)c3ccc([N+](=O)[O-])cc3)cc2)O1 (stereo not given) — within 0.2 log units, 2.17
- CCC1COC(Cn2cncn2)(c2ccc([N+](=O)[O-])cc2)O1 (stereo not given) — lower, 1.52
- CCC1COC(Cn2cncn2)(c2ccc(NC(=O)NC)cc2)O1 (stereo not given) — lower, 0.62
- OCC1COC(Cn2cncn2)(c2ccc(Cl)cc2Cl)O1 (stereo not given) — lower, 1.76
- CCC1COC(Cn2cncn2)(c2ccc(Cl)cc2Cl)O1 (stereo not given) — higher, 3.03
- Cc1ccc(C2(Cn3cncn3)OCCO2)cc1 — lower, 1.55
